Laboratory results published in patent publication US20240327320A1, “NOVEL ROUTES OF CHEMICAL SYNTHESIS OF 20S(OH)D3, 20S,25(OH)2D3, 20S,23S(OH)2D3, AND 20S,23R(OH)2D3 AND THEIR MODIFICATION OF THE IMMUNE ACTIVITY OF PBMCS” (United State Government as represen ted by the Department …, priority 2023, published 2024).

tested on: Human epidermal keratinocytes (HEKn); test: Protein expression, immunofluorescence; assay type: cell-based; conditions: 48 h, FIG. 7C
Procedure: HEKn were cultured until the third passage before treatment. Keratinocytes were plated in a 96-well plate and at 80% confluence, 10^-7 M secosteroids (or 0.1% ethanol control) were added and cells were incubated for 48 h. Cells were fixed and stained with anti-involucrin (1:20, GTX-14504; Genetex, Irvine, CA, USA) anti-CK10 (1:300, Santa Cruz Biotechnology), anti-catalase (1:200, Santa Cruz Biotechnology) or anti-CK14 antibody with Alexa Fluor® 488 (1:500, Santa Cruz Biotechnology) and imaged at 10× magnification in Cytation 5 reader as described before (Chaiprasongsuk A, et. al., (2020) Free Radic Biol Med 155 87-9845; Slominski A T, et. al., (2017) Sci Rep 7(1) 11434; Chaiprasongsuk A, et. al., (2020) Int J Mol Sci 21(24)). Nuclei were stained with blue DAPI. Fluorescence intensity was measured using the Cytation 5 reader and ImageJ, and data were analyzed using Graph Pad Prizm.
FIG. 7C and FIG. 7D represent protein expression studies. Values are presented as percentage of fluorescence positive cells (FIG. 7C) or as mean fluorescence per cell (% of all cells (FIG. 7D). The values in FIG. 7D were calculated as mean green fluorescence vs DAPI blue fluorescence measured in ImageJ. Data are means±SD (n=3) and were analyzed using Student's t-test with p<0.05 (*), p<0.01 (**) or p<0.001 (***).

Structure (SMILES)	protein levels of involucrin, CK10, CK14, and catalase
C=C1CC[C@H](O)C/C1=C/C=C1\CCC[C@@]2(C)[C@H]1CC[C@@H]2[C@@](C)(O)C[C@H](O)CC(C)C [20S,23R(OH)2D3, (20S,23R)-20,23-Dihydroxyvitamin D3]	increasing the levels of involucrin, CK10, CK14, and catalase
C=C1CC[C@H](O)C/C1=C/C=C1\CCC[C@@]2(C)[C@H]1CC[C@@H]2[C@@](C)(O)CCCC(C)(C)O [20S,25(OH)2D3, (20S)-20,25-Dihydroxyvitamin D3]	increasing the levels of involucrin, CK10, CK14, and catalase
C=C1CC[C@H](O)C/C1=C/C=C1\CCC[C@@]2(C)[C@H]1CC[C@@H]2[C@@](C)(O)C[C@@H](O)CC(C)C [20S,23S(OH)2D3, (20S,23S)-20,23-Dihydroxyvitamin D3]	increasing the levels of involucrin, CK10, CK14, and catalase
C=C1CC[C@H](O)C/C1=C/C=C1\CCC[C@@]2(C)[C@H]1CC[C@@H]2[C@@](C)(O)CCCC(C)C [20S(OH)D3, (20S)-20-Hydroxyvitamin D3]	increasing the levels of involucrin, CK10, CK14, and catalase

tested on: CD4 and CD8 T cells from human peripheral blood; test: T cell activation in PBMC, flow cytometry with TriMAP/FlowSOM; assay type: cell-based; conditions: 10^-7 M, 24 h, anti-CD3 and anti-CD28, compared to ethanol treated cells
Procedure: Human peripheral blood mononuclear cells (PBMC) from two healthy individuals were obtained from a pre-existing respository. Their use was approved by the University of Alabama at Birmingham Institutional Review Board (Human Subject Assurance Number FWA00005960) as an exempt protocol #4 (Dr C. Raman, P.I.). […] Informed consent is waived in accord with 45CFR46.116 (d). In 48 well plates, 0.5×10^6 PBMC/well were cultured in RPMI1640 containing, 5% charcoal adsorbed FBS and antibiotics and T cells were activated using […] anti-CD3 (clone 145-2C11) and 1 μg/ml anti-CD28 (clone 37.51) for 24 h (Janjetovic Z, et. al., (2021) Endocrinology 162(1), Chaiprasongsuk A, et. al., (2020) Free Radic Biol Med 155 87-98, Slominski A T, et. al., (2011) Am J Physiol Cell Physiol 300(3) C526-41, McGuire D J, et. al., (2014) Eur J Immunol 44(4) 1137-42, Sestero C M, et. al., (2012) J Immunol 189(6) 2918-30). The culture was treated with 10^-7 M 20S(OH)D3, 20S,25(OH)2D3, 20S,23S(OH)2D3, 20S,23R(OH)2D3 or 1α,25(OH)2D3 (Sigma-Aldrich, St. Louis, MO, USA) dissolved in ethanol and diluted in culture medium at the same time of addition of anti-CD3 and anti-CD28. The vehicle control comprised of 0.1% ethanol. At the end of assay the cells were stained with antibodies to CD4 (clone RPA-T4, BV-421), CD19 (clone HB19, BV-510), CD14 (clone HCD14, Alexa 700), CD137 (clone 4B4-1, BV605), CD8a (clone RPA-T8, FITC), ICOS (clone C398.4A, PE/Dazzle), PD1 (clone NAT105, PE), CD80 (clone 2D10, PerCP/Cy5.5), OX40 (clone ACT35, PE/Cy7), CD69 (clone FN50, APC), HLA-DR (clone L243, APC/Fire 750). All antibodies were from Biolegend except anti-CD8 was from Thermo Fisher. The stained cells were analyzed using a CytoFLEX (Beckman Coulter) flow cytometer.
For unbiased analysis of the multidimensional data, acomputational algorithm-based approaches was utilized (Quintelier K, et. al., (2021) Nature Protocols 16(8) 3775-3801). The flow cytometry standard (FCS) data files from each individual and treatment (two individuals, six treatments including ethanol, a total of 12 data files) were processed through the following workflow—compensation, gating on live cells, gating for single cells and subtraction of CD19+(B cells) and CD14+(monocytes). B cells and monocytes were removed from the analysis because only T cells (CD4+ and CD8+) are activated by anti-CD3 and anti-CD28. After these initial gating steps, a key word was added to each of the 12 FCS files, down sampled to 50,000 events/sample and concatenated. Down sampling ascertains that each sample is equally weighted, and concatenation ascertains that statistical analysis is applied equally. The concatenated files were first subjected to TriMAP analysis, a computational algorithm that clusters populations based on triplet relatedness followed by FlowSOM algorithm-based clustering (Quintelier K, et. al., (2021) Nature Protocols 16(8) 3775-3801). To perform these analyses, plugins within FlowJo (BD, CA, USA) were used.
T cells in peripheral blood from two healthy individuals were activated with anti-CD3 and anti-CD28 in the absence (ethanol) or presence of 10^−7 M of each of the vitamin D3 secosteroids for 24 h. The cells were stained for lineage markers (CD4, CD8, CD19, CD14) and a panel of activation induced markers (CD69, ICOS, OX40, CD137, PD1, HLADR) and expression data were collected using a flow cytometer. The gating strategy was live, single cell followed by CD4 and CD8 T cell populations. […]

Structure (SMILES)	CD4 T cells of population 4 (down modulated CD4, increased CD69 and ICOS)
C=C1CC[C@H](O)C/C1=C/C=C1\CCC[C@@]2(C)[C@H]1CC[C@@H]2[C@@](C)(O)CCCC(C)(C)O [20S,25(OH)2D3, (20S)-20,25-Dihydroxyvitamin D3]	fewer cells
C=C1CC[C@H](O)C/C1=C/C=C1\CCC[C@@]2(C)[C@H]1CC[C@@H]2[C@@](C)(O)C[C@@H](O)CC(C)C [20S,23S(OH)2D3, (20S,23S)-20,23-Dihydroxyvitamin D3]	fewer cells
C=C1CC[C@H](O)C/C1=C/C=C1\CCC[C@@]2(C)[C@H]1CC[C@@H]2[C@@](C)(O)CCCC(C)C [20S(OH)D3, (20S)-20-Hydroxyvitamin D3]	increased the proportion of cells with population 4 phenotype
